From ChEMBL document CHEMBL1134041, “Imide and lactam derivatives of N-benzylpyroglutamyl-L-phenylalanine as VCAM/VLA-4 antagonists” (Bioorg Med Chem Lett, 2001)

How the values were obtained:
[1] = target: T1, Integrin alpha-4/beta-1 (Homo sapiens, UniProt P05556+P13612); assay: Inhibition of human VCAM and Ramos cell VLA-4 interaction; format: cell-based
[2] = target: T1, Integrin alpha-4/beta-1; assay: Inhibition of human VCAM binding to VLA-4 of Ramos cells in ELISA; format: cell-based

T1 sequence (P05556 whole entry): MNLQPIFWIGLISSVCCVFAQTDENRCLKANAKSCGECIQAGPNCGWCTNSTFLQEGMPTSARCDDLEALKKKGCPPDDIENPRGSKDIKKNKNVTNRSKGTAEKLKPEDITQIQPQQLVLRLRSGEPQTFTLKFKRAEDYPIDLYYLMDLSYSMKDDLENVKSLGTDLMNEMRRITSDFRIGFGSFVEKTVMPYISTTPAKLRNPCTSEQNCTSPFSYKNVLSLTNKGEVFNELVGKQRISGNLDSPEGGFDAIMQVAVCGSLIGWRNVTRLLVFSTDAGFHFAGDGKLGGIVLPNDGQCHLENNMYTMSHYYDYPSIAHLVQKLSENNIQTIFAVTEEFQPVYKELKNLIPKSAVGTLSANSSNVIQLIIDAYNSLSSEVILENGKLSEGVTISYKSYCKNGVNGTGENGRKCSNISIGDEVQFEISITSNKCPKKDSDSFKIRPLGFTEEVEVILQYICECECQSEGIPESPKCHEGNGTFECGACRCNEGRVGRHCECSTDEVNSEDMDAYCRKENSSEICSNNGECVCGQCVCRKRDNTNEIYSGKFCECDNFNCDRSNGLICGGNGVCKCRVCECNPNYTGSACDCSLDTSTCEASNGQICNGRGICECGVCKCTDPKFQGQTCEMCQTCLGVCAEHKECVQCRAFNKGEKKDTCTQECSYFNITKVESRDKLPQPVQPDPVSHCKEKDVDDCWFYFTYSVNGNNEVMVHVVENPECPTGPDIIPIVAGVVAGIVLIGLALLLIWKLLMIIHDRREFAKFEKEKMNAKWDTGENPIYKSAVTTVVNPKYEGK
T1 sequence (P13612 whole entry): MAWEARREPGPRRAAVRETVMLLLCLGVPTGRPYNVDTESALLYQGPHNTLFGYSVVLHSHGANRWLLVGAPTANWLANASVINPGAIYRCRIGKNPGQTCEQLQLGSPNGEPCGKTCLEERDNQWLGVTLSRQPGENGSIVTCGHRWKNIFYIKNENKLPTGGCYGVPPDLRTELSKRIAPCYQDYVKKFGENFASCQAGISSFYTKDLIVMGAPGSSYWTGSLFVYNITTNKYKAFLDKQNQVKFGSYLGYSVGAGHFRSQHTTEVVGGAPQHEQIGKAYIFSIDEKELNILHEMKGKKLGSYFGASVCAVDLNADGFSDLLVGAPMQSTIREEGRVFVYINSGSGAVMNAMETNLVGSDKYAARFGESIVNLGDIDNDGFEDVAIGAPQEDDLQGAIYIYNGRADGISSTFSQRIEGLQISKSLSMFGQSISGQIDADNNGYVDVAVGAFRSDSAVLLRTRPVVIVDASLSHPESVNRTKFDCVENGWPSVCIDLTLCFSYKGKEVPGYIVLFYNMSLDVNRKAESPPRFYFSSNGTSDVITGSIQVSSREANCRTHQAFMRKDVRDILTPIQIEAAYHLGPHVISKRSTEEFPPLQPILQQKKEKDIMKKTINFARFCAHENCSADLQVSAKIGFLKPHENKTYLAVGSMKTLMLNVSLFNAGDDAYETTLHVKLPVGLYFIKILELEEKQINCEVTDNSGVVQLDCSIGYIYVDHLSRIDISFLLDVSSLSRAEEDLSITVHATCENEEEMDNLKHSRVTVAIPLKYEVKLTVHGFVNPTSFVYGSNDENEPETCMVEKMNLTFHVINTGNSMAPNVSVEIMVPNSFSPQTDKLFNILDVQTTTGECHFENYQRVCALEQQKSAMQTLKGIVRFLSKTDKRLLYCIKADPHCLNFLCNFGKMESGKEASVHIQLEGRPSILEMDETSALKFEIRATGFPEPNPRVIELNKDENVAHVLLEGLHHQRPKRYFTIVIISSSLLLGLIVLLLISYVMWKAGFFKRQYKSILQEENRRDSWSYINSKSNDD

Row | Structure (SMILES) | IC50 [1] [nM] | IC50 [2] [nM]
1 | O=C(O)[C@H](Cc1ccc(N2C(=O)CC(c3ccccc3)C2=O)cc1)NC(=O)[C@@H]1CCC(=O)N1Cc1ccccc1 (stereo not given in full) | 92 | 1.7
2 | O=C(O)[C@H](Cc1ccc(N2Cc3ccccc3C2=O)cc1)NC(=O)[C@@H]1CCC(=O)N1Cc1ccccc1 | 500 | 2.7
3 | O=C(O)[C@H](Cc1ccc(N2C(=O)CCC2=O)cc1)NC(=O)[C@@H]1CCC(=O)N1Cc1ccccc1 | 286 | 3.2
4 | O=C(O)[C@H](Cc1ccc(N2C(=O)c3ccccc3C2=O)cc1)NC(=O)[C@@H]1CCC(=O)N1Cc1ccccc1 | 20 | 0.52
5 | O=C(O)[C@H](Cc1ccc(N2C(=O)CC(Cc3ccccc3)C2=O)cc1)NC(=O)[C@@H]1CCC(=O)N1Cc1ccccc1 (stereo not given in full) | 123 | 0.94
6 | O=C(O)[C@H](Cc1ccc(N2C(=O)CCC(c3ccccc3)C2=O)cc1)NC(=O)[C@@H]1CCC(=O)N1Cc1ccccc1 (stereo not given in full) | 184 | 0.99
7 | O=C(O)[C@H](Cc1ccc(N2C(=O)CC3(CCCC3)CC2=O)cc1)NC(=O)[C@@H]1CCC(=O)N1Cc1ccccc1 | 57 | 0.54
8 | O=C(Nc1ccc(C[C@H](NC(=O)[C@@H]2CCC(=O)N2Cc2ccccc2)C(=O)O)cc1)c1c(Cl)cccc1Cl | 12 | 0.37
9 | O=C(O)[C@H](Cc1ccc(N2CCCC2=O)cc1)NC(=O)[C@@H]1CCC(=O)N1Cc1ccccc1 | – | 16
10 | O=C(O)[C@H](Cc1ccc(N2C(=O)Cc3ccccc3C2=O)cc1)NC(=O)[C@@H]1CCC(=O)N1Cc1ccccc1 | 107 | 0.98
11 | CC(C)CC1CC(=O)N(c2ccc(C[C@H](NC(=O)[C@@H]3CCC(=O)N3Cc3ccccc3)C(=O)O)cc2)C1=O (stereo not given in full) | 41 | 0.76
12 | O=C(O)[C@H](Cc1ccc(N2C(=O)CC(c3ccc(O)cc3)C2=O)cc1)NC(=O)[C@@H]1CCC(=O)N1Cc1ccccc1 (stereo not given in full) | 420 | 2.6
13 | O=C(O)[C@H](Cc1ccc(N2C(=O)c3ccncc3C2=O)cc1)NC(=O)[C@@H]1CCC(=O)N1Cc1ccccc1 | 650 | 4.3
